According to EP2678315B1, “(Pyridin-4-yl)benzylamides as allosteric modulators of alpha 7 nAChR” (Janssen Pharmaceutica, N.V., priority 2011, dated 2012):

Key:
human alpha 7-wt nAChR [1] = molecular target: T1, human alpha 7-wt nAChR (Homo sapiens, UniProt P36544); assay: Ca2+ flux imaging (FDSS) (protocol B); format: cell-based; details: Ca2+ assay as described in D.1; for EC50: read-out: pEC50 (converted)
T1 construct: expressed in transfected cells
How it was run: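 Fluo-4AM-loaded (2 µM) cells expressing human α7-wt nAChR in HEPES-HBSS with 5 mM CaCl2. Compounds (0.01–30 µM) were added, possibly 10 min before, with choline 100 µM, and peak fluorescence was monitored by FDSS. Potentiation was relative to the choline response, set as 100%; EC50 came from sigmoidal curves.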

human alpha 7-wt nAChR [2] = molecular target: T1, human alpha 7-wt nAChR; assay: Patch-clamp current recording (whole-cell voltage-clamp, GH4C1 cells); format: cell-based; design: key: Type 0 compounds minimally change the effect size of the current elicited by 1 mM choline.; Type 1 compounds enhance the effect size of the current elicited by 1 mM choline but minimally alter the kinetics of the receptor.; Type 2 compounds enhance the effect size of the current elicited by 1 mM choline while reducing the rate and/or the extent of desensitization.; Type 3 compounds enhance the effect size of the current elicited by 1 mM choline. When tested at higher concentrations up to 10 µM they completely inhibit desensitization; Type 4 compounds allow for an initial desensitization of the receptor followed by a re-opening of the receptor during agonist application; details: current elicited by 1 mM choline
Procedure: The compounds of the present invention are classified as type 1-4, based on qualitative kinetic properties, as determined by whole-cell voltage-clamp recordings. This classification is based on the effect of an alpha 7 PAM compound, as described hereinbefore, on the signal elicited by an agonist application. In particular, said agonist is choline at a concentration of 1mM. In a preferred experimental setting, said alpha 7 PAM compound and choline are simultaneously applied to the cell, as described hereinafter. Desensitization is defined as the closure of the receptor upon activation during the application of the agonist in whole-cell voltage-clamp electrophysiology measurements seen as the reduction of the […] current after initial activation by the agonist.
The definition of the PAM types 1-4 is described hereinafter: Type 0 compounds minimally change the effect size of the current elicited by 1 mM choline. Type 1 compounds enhance the effect size of the current elicited by 1 mM choline but minimally alter the kinetics of the receptor. In particular, the rate and the extent of desensitization and of deactivation of the receptor elicited by the agonist is not affected. The compound-modulated response to 1 mM choline, therefore, is close to a linear scaling of the 1 mM choline response in absence of the alpha 7 PAM compound: Type 2 compounds enhance the effect size of the current elicited by 1 mM choline while reducing the rate and/or the extent of desensitization. Deactivation of the receptor is generally unaffected. Type 3 compounds enhance the effect size of the current elicited by 1 mM choline. […] Deactivation of the receptor may be slowed down. Type 4 compounds allow for an initial desensitization of the receptor followed by a re-opening of the receptor during agonist application. At low-potency concentrations of the alpha 7 PAM compound, the agonist-induced activation, which is followed by desensitization, can still be separated from the compound-induced re-opening as an initial inward current-maximum. At higher potency concentrations of the alpha 7 PAM compound, the re-opening occurs faster than the closure due to desensitization so that the initial current-maximum disappears.
A compound was considered to have interesting PAM-like activity when the potentiation of the peak current was at least 200% compared to the control choline response (= 100%). Such compounds are classified as belonging to a particular PAM type in the Experimental Part. Compounds not meeting the condition are not classified as belonging to a particular PAM-type.
The compounds also have a potentiating effect on the response to choline when measured by whole-cell patch clamp electrophysiology in GH4C1 cells stably over-expressing the human wild-type alpha 7 receptor.
Example D.2 : Patch-clamp current recording
Patch-clamp recording from mammalian cells has provided a powerful means of assessing the function of membrane-bound proteins thought to be subunits of ligand-gated ion channels. Activation of such proteins by endogenous or exogenous ligands cause opening of a pore associated with the receptor through which ions flow down their electrochemical gradient. In the case of the human alpha 7-wt nAChR-expressing GH4C1 recombinant cell line the preferential permeability to calcium of this receptor means that calcium flows into the cell upon activation by ACh, choline and other nicotinic ligands giving rise to a calcium current. Since this receptor rapidly desensitizes in the presence of agonist it is important that an application system is used which is capable of very rapid switching of solutions (< 100 ms) to prevent partial or full desensitisation of receptor responses coincident with the time of agonist application. Consequently, a second convenient technique to assess the enhancement of nicotinic efficacy is a patch-clamp recording from human alpha 7-wt nAChR-expressing GH4C1 cells coupled with a rapid-application system. […]

T1 sequence (P36544 23-502): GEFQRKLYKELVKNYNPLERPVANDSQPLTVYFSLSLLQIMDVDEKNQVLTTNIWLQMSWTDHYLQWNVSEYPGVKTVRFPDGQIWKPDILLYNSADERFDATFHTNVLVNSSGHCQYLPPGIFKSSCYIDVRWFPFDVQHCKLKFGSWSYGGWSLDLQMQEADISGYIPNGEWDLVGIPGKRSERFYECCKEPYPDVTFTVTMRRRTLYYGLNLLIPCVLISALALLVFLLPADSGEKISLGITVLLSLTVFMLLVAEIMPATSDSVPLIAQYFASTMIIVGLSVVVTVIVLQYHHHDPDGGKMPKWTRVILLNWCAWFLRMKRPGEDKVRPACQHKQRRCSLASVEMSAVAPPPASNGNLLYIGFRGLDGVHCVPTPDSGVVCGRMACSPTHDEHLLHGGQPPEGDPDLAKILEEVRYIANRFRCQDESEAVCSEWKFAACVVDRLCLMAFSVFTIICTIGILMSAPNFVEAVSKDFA

`Cc1cc(-c2ccc(N3C[C@@H](C)O[C@@H](C)C3)c(CNC(=O)CC3CC3)c2)cc(C)n1` [Compound 132] was tested, and the EC50 (human alpha 7-wt nAChR [1]) was 60.3 nM and the PAM type (human alpha 7-wt nAChR [2]) was 4.

For `Cc1cc(-c2ccc(N3C[C@@H](C)O[C@@H](C)C3)c(CNC(=O)c3cc(C)on3)c2)cc(C)n1` [Compound 133], the EC50 (human alpha 7-wt nAChR [1]) was 50.1 nM and the PAM type (human alpha 7-wt nAChR [2]) was 0.

In the case of `Cc1cc(-c2ccc(N3C[C@@H](C)O[C@@H](C)C3)c(CNC(=O)C(C)C)c2)cc(C)n1` [Compound 134], the EC50 (human alpha 7-wt nAChR [1]) is reported as 91.2 nM and the PAM type (human alpha 7-wt nAChR [2]) is reported as 3.

`Cc1cc(-c2ccc(N3C[C@@H](C)O[C@@H](C)C3)c(CNC(=O)c3conc3C)c2)cc(C)n1` [Compound 136] showed an EC50 (human alpha 7-wt nAChR [1]) of 129 nM and a PAM type (human alpha 7-wt nAChR [2]) of 3.

Compound `CC(C)C(=O)NCc1cc(N2CCOCC2)ccc1-c1ccncc1` [Compound 137] has an Emax (human alpha 7-wt nAChR [1]; read-out: % Efficacy) of 528% and a PAM type (human alpha 7-wt nAChR [2]) of 0.
